According to patent US20140328898A1, “Nano-Liposomal Formulations and Methods of Use” (CHILDREN'S NATIONAL MEDICAL CENTER, priority 2013, published 2014):

Test: Size-dependent transdermal penetration of PEGylated and anionic liposomes through the stratum corneum of porcine ear tissue (Example 2), DiI fluorescence intensity profiles
Type: in vitro ADME, Yorkshire piglets
Settings: free dye applied to the skin in liposome-free buffer (control)
From the text: For PEGylated liposomes, dimyristoylphosphatidylcholine (DMPC), cholesterol, and dipalmitoylphosphatidylethanolamine-PEG 2000 (PEG2000-PE) (Avanti Polar Lipids Inc., Alabaster, Ala.) were combined in chloroform (Mallinckrodt Baker Inc., Phillipsburg, N.J.) at a molar ratio of 70:25:5. For anionic liposomes, DMPC, cholesterol (both from Avanti), and anionic surfactant dihexadecyl phosphate (DCP) (Sigma Aldrich, St. Louis, Mo.) were mixed in chloroform (Mallinckrodt Baker Inc.) at a molar ratio of 50:40:10. The lipid mixtures were prepared in glass scintillation vials then stored in a vacuum desiccator for at least 24 hours for complete solvent removal. The desiccated lipid mixtures were re-dissolved in anhydrous ethanol (Sigma Aldrich) for a total lipid concentration of 40 mM. To assist in fluorescent imaging, a lipophilic membrane dye, 1,1′-dioctadecyl-3,3,3′,3′-tetramethylindocarbocyanine perchlorate (DiI-C18; DiI) (Life Technologies, Carlsbad, Calif.) was included into the lipid mixtures (1 wt %). […]
The microfluidic-generated liposomes contained lipophilic DiI in their bilayers and hydrophilic SF in their cores to enable fluorescence imaging of tissue penetration depth. […]

In the case of `O=C([O-])c1ccccc1-c1c2ccc(=O)cc-2oc2cc([O-])ccc12.[Na+].[Na+]` [free SF dye, sodium fluorescein salt], the “SF dye penetration beyond the SC (in words)” value is reported as “no penetration beyond the SC was observed”.
